Results on 45 compounds are retold here after patent US10000450B2, “N,N-substituted 3-aminopyrrolidine compounds useful as monoamines reuptake inhibitors” (OTSUKA PHARMACEUTICAL CO., LTD., priority 2005, dated 2018).

Common to all, as to format: biochemical
In assay [1] the target is T1, Norepinephrine (NE) uptake into rat brain synaptosome (hippocampus) (Rattus norvegicus, UniProt Q63380).
T1 construct: used as crude synaptosome fraction; from tissue; host or cells: rat (male Wistar) hippocampus, crude synaptosome fraction
Kind of assay: Inhibitory activity on norepinephrine (NE) uptake into rat brain synaptosome. To be noted: tritium-labeled NE 12 nM uptake, 10 min at 37° C., read-out: 50% inhibitory concentration. Here is the method:
Pharmacological Test 2 Evaluation of Inhibitory Activity of Test Compound on Norepinephrine (NE) Uptake into Rat Brain Synaptosome
(§1) Male Wistar rats were decapitated and the brains were removed and the hippocampi were dissected. The separated hippocampi were homogenized in 20 volumes as weight of 0.32 M sucrose solution by a Potter-type homogenizer. The homogenate was centrifuged at 1000 g at 4° C. for 10 minutes, and the supernatant was then centrifuged at 20000 g at 4° C. for 20 minutes. The pellet was resuspended in incubation buffer (20 mM HEPES buffer (pH 7.4)) containing 10 mM glucose, 145 mM sodium chloride, 4.5 mM potassium chloride, 1.2 mM magnesium chloride, and 1.5 mM calcium chloride) and used as crude synaptosome fraction.
The uptake reaction mixture was suspended in final volume of 200 μl containing pargyline (final concentration of 10 μM) and sodium ascorbate (final concentration of 0.2 mg/ml) in each well of 96-well-round-bottom-plate.
Solvent, unlabeled NE, and serial diluted test compounds were added to each well, and synaptosome fraction of 1/10 volume of the final volume were added. After 10 minutes preincubation at 37° C., the uptake was initiated by the addition of tritium-labeled NE solution (final concentration of 12 nM) at 37° C. The uptake was stopped after 10 minutes by filtration under vacuum through a 96-well glass fiber filter plate. After washing the filter with cold physiological saline and drying up, Microscint-0 (Perkin-Elmer) was added, and remained radioactivity on the filter was measured.
The total uptake activity with only solvent was determined as 100%, and the nonspecific uptake activity with unlabeled NE (final concentration of 10 μM) was determined as 0%. The 50% inhibitory concentrations were calculated based on the concentrations of the test compounds and their inhibitory activities.

Assay [2] deals with T2, Dopamine (DA) uptake into rat brain synaptosome (striatum) (Rattus norvegicus, UniProt P23977).
T2 construct: used as crude synaptosome fraction; from tissue; host or cells: rat (male Wistar) striatum, crude synaptosome fraction
Briefly: Inhibitory activity on dopamine (DA) uptake into rat brain synaptosome. To be noted: tritium labeled DA 2 nM uptake, 10 min at 37° C., read-out: 50% inhibitory concentration. How it is done: Pharmacological Test 3 Evaluation of Inhibitory Activity of Test Compound on Dopamine (DA) into Rat Brain Synaptosome
as §1, with “striata” for “hippocampi”
(§2) The uptake reaction mixture was suspended in a final volume of 200 μl containing pargyline (final concentration of 10 μM) and sodium ascorbate (final concentration of 0.2 mg/ml) in each well of 96-well-round-bottom-plate.
Solvent, unlabeled DA, and serial diluted test compounds were added in each well, and synaptosome fraction of 1/10 volume of the final volume were added. After 10-min preincubation at 37° C., the uptake was initiated by the addition of tritium labeled DA solution (final concentration of 2 nM) at 37° C. The uptake was stopped after 10 minutes by filtration under vacuum through a 96-well glass fiber filter plate. After washing the filter with cold physiological saline and drying up, Microscint-0 (Perkin-Elmer) was added and remained radioactivity on the filter was measured.
The uptake activity with only solvent was determined as 100%, and the nonspecific uptake activity with unlabeled DA (final concentration of 10 μM) was determined as 0%. The 50% inhibitory concentrations were calculated based on the concentrations of the test compounds and their inhibitory activities.

The target in assay [3] is T3, Serotonin (5-HT) uptake into rat brain synaptosome (frontal cortex) (Rattus norvegicus, UniProt P31652).
T3 construct: used as crude synaptosome fractions; from tissue; host or cells: rat (male Wistar) frontal cortex, crude synaptosome fraction
Kind of assay: Inhibitory activity on serotonin (5-HT) uptake into rat brain synaptosome. The following applies: tritium-labeled 5-HT 8 nM uptake, 10 min at 37° C., read-out: 50% inhibittory concentration. How it is done:
Pharmacological Test 1 Evaluation of Inhibitory Activity of Test Compound on Serotonin (5-HT) Uptake into Rat Brain Synaptosome
as §1, with “frontal cortices” for “hippocampi”, “fractions.” for “fraction.”
as §2
Solvent, unlabeled 5-HT, and serial diluted test compounds were added in each well, and synaptosome fraction of 1/10 volume of the final volume were added. After a 10 min preincubation at 37° C., the uptake was initiated by the addition of tritium-labeled 5-HT solution (final concentration of 8 nM) at 37° C. The uptake was stopped after 10 minutes by filtration under vacuum through a 96-well glass fiber filter plate. After washing the filter with cold physiological saline and drying up, Microscint-O (Perkin-Elmer) was added, and remained radioactivity on the filter was measured.
The total uptake activity with only solvent was determined as 100%, and the nonspecific uptake activity with unlabeled 5-HT (final concentration of 10 μM) was determined as 0%. The 50% inhibitory concentrations were calculated based on the concentrations of the test compounds and their inhibitory activities.

Counter-ions that a name gives are not always drawn.

T1 sequence (Q63380 1-617): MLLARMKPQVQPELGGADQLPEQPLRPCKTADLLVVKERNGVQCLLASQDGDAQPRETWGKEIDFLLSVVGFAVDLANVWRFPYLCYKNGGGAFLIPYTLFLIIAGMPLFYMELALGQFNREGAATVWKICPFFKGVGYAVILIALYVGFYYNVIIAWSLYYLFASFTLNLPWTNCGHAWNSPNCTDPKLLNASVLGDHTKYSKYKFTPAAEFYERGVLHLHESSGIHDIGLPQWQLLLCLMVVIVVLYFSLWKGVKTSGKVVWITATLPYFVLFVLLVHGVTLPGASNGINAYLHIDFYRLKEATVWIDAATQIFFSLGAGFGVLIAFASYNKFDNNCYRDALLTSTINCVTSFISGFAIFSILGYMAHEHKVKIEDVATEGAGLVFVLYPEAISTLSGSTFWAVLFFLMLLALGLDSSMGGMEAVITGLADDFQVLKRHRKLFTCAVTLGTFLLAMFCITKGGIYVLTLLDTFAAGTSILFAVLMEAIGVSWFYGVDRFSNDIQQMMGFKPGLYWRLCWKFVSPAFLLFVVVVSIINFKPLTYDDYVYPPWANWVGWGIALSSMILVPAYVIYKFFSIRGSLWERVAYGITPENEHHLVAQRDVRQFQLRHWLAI
T3 sequence (P31652 whole entry): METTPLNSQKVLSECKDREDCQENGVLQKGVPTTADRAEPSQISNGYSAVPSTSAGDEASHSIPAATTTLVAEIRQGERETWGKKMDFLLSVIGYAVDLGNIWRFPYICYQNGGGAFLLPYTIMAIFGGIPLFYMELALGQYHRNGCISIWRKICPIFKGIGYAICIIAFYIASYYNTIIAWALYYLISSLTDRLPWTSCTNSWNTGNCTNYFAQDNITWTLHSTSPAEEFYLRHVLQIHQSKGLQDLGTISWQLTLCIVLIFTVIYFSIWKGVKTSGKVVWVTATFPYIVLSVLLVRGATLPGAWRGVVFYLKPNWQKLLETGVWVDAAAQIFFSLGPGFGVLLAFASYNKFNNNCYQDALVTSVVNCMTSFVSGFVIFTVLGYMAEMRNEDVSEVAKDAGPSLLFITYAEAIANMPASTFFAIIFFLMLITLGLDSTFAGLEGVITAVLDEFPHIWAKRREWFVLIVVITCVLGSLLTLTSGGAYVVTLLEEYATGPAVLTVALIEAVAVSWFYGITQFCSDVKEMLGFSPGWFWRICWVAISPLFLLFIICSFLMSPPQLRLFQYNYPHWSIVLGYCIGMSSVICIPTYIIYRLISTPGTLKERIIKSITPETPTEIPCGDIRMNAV
T2 sequence (P23977 whole entry): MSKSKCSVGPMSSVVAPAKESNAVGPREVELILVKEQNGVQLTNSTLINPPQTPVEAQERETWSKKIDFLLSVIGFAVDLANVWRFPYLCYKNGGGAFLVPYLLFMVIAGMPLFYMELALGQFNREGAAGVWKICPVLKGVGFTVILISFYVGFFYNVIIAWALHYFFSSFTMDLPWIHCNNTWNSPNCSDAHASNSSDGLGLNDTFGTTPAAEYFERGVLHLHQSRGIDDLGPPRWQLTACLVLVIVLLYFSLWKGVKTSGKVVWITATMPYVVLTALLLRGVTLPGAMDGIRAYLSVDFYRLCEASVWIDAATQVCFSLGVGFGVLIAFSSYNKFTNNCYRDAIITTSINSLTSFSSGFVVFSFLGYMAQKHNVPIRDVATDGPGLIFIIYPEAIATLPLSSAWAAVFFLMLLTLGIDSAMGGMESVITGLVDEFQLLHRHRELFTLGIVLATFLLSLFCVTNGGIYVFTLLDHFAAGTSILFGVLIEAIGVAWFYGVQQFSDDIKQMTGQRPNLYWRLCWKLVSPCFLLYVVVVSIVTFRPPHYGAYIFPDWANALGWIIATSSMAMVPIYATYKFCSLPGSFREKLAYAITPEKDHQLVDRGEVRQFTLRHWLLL

For the compound `COc1cccc(N(c2ccc(F)c(Cl)c2)[C@H]2CCNC2)n1` [Example 223], the IC50 in assay [1] is 200 pM.

`Cc1ccc(N(c2ccccc2)[C@H]2CCNC2)cc1` [Example 22]: in assay [1], the IC50 was 2200 pM.

With `Clc1ccc(N(c2ccncc2)[C@H]2CCNC2)cc1Cl` [Example 273], the IC50 in assay [2] worked out at 32900 pM.

As for `Fc1ccc(N(CCCCOc2ccccn2)[C@H]2CCNC2)cc1Cl` [Example 5, (3-chloro-4-fluorophenyl)-[4-(pyridin-2-yloxy)butyl]-(S)-pyrrolidin-3-ylamine difumarate], the IC50 in assay [3] is 1600 pM.

As to `Fc1ccc(N(c2ccc3ccsc3n2)[C@H]2CCNC2)cc1` [Example 899], in assay [3], the IC50 is 700 pM.

In the case of `Fc1ccc(N(c2ccc(Cl)nc2)[C@H]2CCNC2)cc1Cl` [Example 244], the IC50 in assay [1] stood at 500 pM.

For `N#Cc1ccc(N(c2ccc(Cl)c(Cl)c2)[C@H]2CCNC2)cn1` [Example 270], the IC50 in assay [2] is 8200 pM.

On to `Cc1cc(N(c2cnc3ccccc3c2)[C@H]2CCNC2)ccc1F` [Example 151], for which, in assay [3], the IC50 worked out at 800 pM.

Regarding `O=C1CCc2ccc(N(c3ccc(F)cc3)[C@H]3CCNC3)cc2N1` [Example 917], in assay [3], the IC50 was determined as 700 pM.

In the case of `Fc1ccc(N(c2ccc(N3CCNCC3)cn2)[C@H]2CCNC2)cc1Cl` [Example 200], the IC50 in assay [2] came out at 3800 pM.

With `c1cncc(N(c2ccc3sccc3c2)[C@H]2CCNC2)c1` [Example 294], the IC50 in assay [2] was 24000 pM.

In the case of `Fc1ccc(N(c2cnc3ccccc3c2)[C@H]2CCNC2)cc1Cl` [Example 149], in assay [3], the IC50 came to 1200 pM.

As to `Clc1ccc(N(c2cnccn2)[C@H]2CCNC2)cc1Cl` [Example 963], the IC50 in assay [2] was found to be 47100 pM; in assay [1], 800 pM; in assay [3], 1000 pM.

As to `Clc1ccc(N(c2ccccn2)[C@H]2CCNC2)cc1Cl` [Example 188], the IC50 in assay [1] is 100 pM.

Turning to `c1ccc(N(c2ccc3sccc3c2)[C@H]2CCNC2)cc1` [Example 116], the IC50 in assay [2] is 8900 pM; in assay [1], 100 pM.

As to `Fc1ccc(N(c2ccc3cnsc3c2)[C@H]2CCNC2)cc1` [Example 901], the IC50 in assay [3] was 700 pM.

For the compound `c1ccc(N(c2ccc3sccc3n2)[C@H]2CCNC2)cc1` [Example 934], in assay [3], the IC50 is 1800 pM.

On to `Fc1ccc(N(c2ccc3ncsc3c2)[C@H]2CCNC2)cc1Cl` [Example 989], for which the IC50 in assay [2] stood at 5800 pM; in assay [1] it was 300 pM; in assay [3], 600 pM.

With `Fc1ccc(N(c2ccccc2)[C@H]2CCNC2)cc1Cl` [Example 44], the IC50 amounted to 8700 pM in assay [2] and 400 pM in assay [1].

With `Clc1ccc(N(c2cccnc2)[C@H]2CCNC2)cc1Cl` [Example 242], the IC50 in assay [1] amounted to 200 pM.

For `Fc1ccc(N(c2ccc(Cl)c(Cl)c2)[C@H]2CCNC2)nc1` [Example 961], the IC50 in assay [2] came out at 9600 pM; in assay [1], 700 pM; in assay [3] it was 2800 pM.

Take `CCN1CCN(c2ccc(N(c3ccc(F)c(Cl)c3)[C@H]3CCNC3)nc2)CC1` [Example 201]: the IC50 in assay [2] stood at 4300 pM.

For the compound `c1ccc(N(c2ccc3cnsc3c2)[C@H]2CCNC2)cc1` [Example 900], the IC50 in assay [1] was 600 pM; in assay [3] it was 1500 pM.

On to `c1cncc(N(c2ccc3ccsc3c2)[C@H]2CCNC2)c1` [Example 289], for which the IC50 is 30600 pM in assay [2] and 100 pM in assay [1].

Take `Clc1ccc(N(c2cccnc2)[C@H]2CCNC2)cc1Cl` [Example 256]: in assay [1], the IC50 was 100 pM.

On to `Fc1ccc(N(c2nccs2)[C@H]2CCNC2)cc1Cl` [Example 131], for which the IC50 in assay [1] turned out to be 200 pM; in assay [3], 600 pM.

In the case of `Clc1ccc(N(c2ccccc2)C2CCNC2)cc1Cl` (stereo not drawn) [Example 1, (3,4-dichlorophenyl)phenylpyrrolidin-3-ylamine dihydrochloride], the IC50 in assay [1] is 600 pM.

For the compound `c1cc(N(c2ccc3ccsc3c2)[C@H]2CCNC2)cs1` [Example 1001], the figures for the IC50 in assay [2] and in assay [1] were 16400 pM and 100 pM, respectively.

On to `Cc1cc(N(c2ccccc2)[C@H]2CCNC2)ccc1F` [Example 46], for which the IC50 in assay [2] is 9300 pM.

With `c1cc2cc(N(c3ccc4sccc4c3)[C@H]3CCNC3)ccc2s1` [Example 299], the IC50 in assay [2] is 48600 pM.

For `c1ccc2cc(N(c3ccsc3)[C@H]3CCNC3)ccc2c1` [Example 1000], the IC50 in assay [1] was 400 pM.

For the compound `Cc1ccc(N(c2cccc(F)c2)[C@H]2CCNC2)cc1Cl` [Example 98], the IC50 in assay [1] was 300 pM.

Turning to `Fc1ccc(N(c2ccccc2)[C@H]2CCNC2)cc1` [Example 20], in assay [1], the IC50 stood at 800 pM.

As for `Fc1cncc(N(c2ccc3sccc3c2)[C@H]2CCNC2)c1` [Example 951], the IC50 was found to be 29800 pM in assay [2] and 500 pM in assay [1].

With `Cn1ncc2ccc(N(c3ccc(F)c(Cl)c3)[C@H]3CCNC3)cc21` [Example 990], the IC50 in assay [2] is 26000 pM; in assay [1] it was 800 pM.

As for `N#Cc1ccc(N(c2ccc(F)c(Cl)c2)[C@H]2CCNC2)cn1` [Example 268], the IC50 in assay [2] is 6500 pM; in assay [3], 800 pM.

`Cn1c(=O)ccc2cc(N(c3ccc(F)c(Cl)c3)[C@H]3CCNC3)ccc21` [Example 912]: the IC50 in assay [2] worked out at 30200 pM; in assay [3], 1000 pM.

As for `Cc1cc2ccc(N(c3ccccc3)[C@H]3CCNC3)cc2s1` [Example 903], the IC50 in assay [1] was determined as 700 pM; in assay [3] it was 1200 pM.

As for `[O-][n+]1cccc(N(c2ccc(F)c(Cl)c2)[C@H]2CCNC2)c1` [Example 896], the values for the IC50 in assay [1] and in assay [3] were 900 pM and 2500 pM, respectively.

Turning to `c1cc2ccc(N(c3ccc4ccsc4c3)[C@H]3CCNC3)cc2s1` [Example 300], the IC50 in assay [2] was 9600 pM.

In the case of `N#Cc1ccc(N(c2ccc(F)c(Cl)c2)[C@H]2CCNC2)cc1` [Example 73], the IC50 in assay [2] came out at 9000 pM; in assay [3], 600 pM.

In the case of `N#Cc1ccc(-c2cncc(N(c3ccc(F)c(Cl)c3)[C@H]3CCNC3)c2)cc1` [Example 272], in assay [2], the IC50 was found to be 30000 pM.

As to `Fc1ccc(N(C2CCCC2)[C@H]2CCNC2)cc1Cl` [Example 306], the IC50 in assay [1] was 800 pM; in assay [3] it was 1400 pM.

For the compound `CSc1ccc(N(c2ccccc2)[C@H]2CCNC2)cc1` [Example 19], in assay [3], the IC50 worked out at 700 pM.

On to `c1cc(N(c2ccc3sccc3c2)[C@H]2CCNC2)cs1` [Example 1002], for which the values for the IC50 in assay [2] and in assay [1] were 32900 pM and 100 pM, respectively.
